Test results published in patent US7297353B2, “Use of anemonin for treating aseptic inflammations” (priority 2000, dated 2007).
Entries after “also recorded” stand apart in the source; their conditions may differ. Read-outs that look alike come from different tables or passages of the source.

Experiments:
[1] = tested on: lymphocytes from the whole spleen of ICR mice; assay: Effect on survival rate of lymphocytes (MTT); assay type: cell-based; settings: for MTT Average of OD values: 48-hour culture
Procedure: 5.1.1. Mice were sacrificed by removing spondyle, spleen was cut off and then ground to obtain single cell suspension. After erythrocytes were got rid of the remained cells were diluted to […] with RPMI-1640 culture solution containing 10% fetal bovine serum. In addition, all these performances must be sterile.
5.1.2. 200 μl solution in total volume (including 100 μl the cell suspension, 50 μl sample and 50 μl culture solution containing 10% fetal bovine serum) was dispensed on 96-well plate. 100 μl the cell suspension and 100 μl culture solution (200 μl in total volume) were added as negative control.
5.1.3. The cell was cultured at 37° C. and under 5% CO2 in incubator for 48 hours, and added MTT to the plate at […] 6 to 7 hours before the end of culture.
5.1.4. 100 μl of supernatant was sucked out when the culture was ended, and then lytic solution was added at 100 μl/well. The plates were kept in incubator for 6 to 7 hours. The survival rate was calculated according to the OD value (at 570 nm) measured by microplate reader.
Effect of different concentrations of Anemonin on survival rate of lymphocytes were determined, said lymphocytes were from the whole spleen of ICR mice after 48-hour culture.

[2] = tested on: T-lymphocytes from the whole spleen of mice; assay: ConA-induced responsive proliferation of T-lymphocytes ([3H] thymidine); assay type: cell-based; settings: for Proliferation of T-lymphocytes ConA stimulation Average of CPM values: ConA at 51 μg/ml, 48 hours
Procedure: 5.2.1. Mice were sacrificed by removing spondyle, spleen was cut off in a sterile condition and then ground to obtain single cell suspension. After erythrocytes were got rid of the remained cells were diluted to […] with RPMI-1640 culture solution containing 10% fetal bovine serum.
5.2.2. 200 μl solution in total volume (including 100 μl the cell suspension, 50 μl sample and 50 μl ConA or LPS) was dispensed on 96-well plate.
50 μl culture solution containing 10% fetal bovine serum, instead of 50 μl sample, was added as negative control, in which the total volume was also 200 μl.
5.2.3. The cell was cultured at 37° C. and under 5% CO2 in incubator for 48 hours, and [^3H] thymidine (1.9×10^4 Bq) was added to the plate at 25 μl/well 12 hours before the end of culture.
5.2.4. The culture was continued. The plates were then stored at −20° C. in refrigeratory after the culture. The thawed cells were collected to fiberglass membrane (Nitrocellose membrane) with cell collector when detecting. After the addition of Scintillation solution, the quantity of [^3H] thymidine incorporated into DNA of cells was detected by Beta counter (MicroBeta Trilux, PerkinElmer LifeSciences). The proliferation of lymphocytes was indicated by cpm value.
Effect of the medicament on ConA-induced responsive proliferation of T-lymphocytes was examined, said T-lymphocytes were from the whole spleen of mice. ConA at 51 μg/ml final concentration was used as the stimulator to induce responsive proliferation of T-lymphocytes from the whole spleen of ICR homogenous mice (cultured in vitro for 48 hours).

[3] = tested on: dimethylbenene-induced ear swelling; assay: Acute ear edema of mice induced by dimethylbenene; assay type: in vivo; settings: for Ear swellin: 50 μl on ear, two hours after dimethylbenene
Procedure: The mice were randomly divided into 5 groups. Thirty minutes and sixty minutes after applying dimethylbenene (50 μl) to the anterior and posterior surfaces of the right ear, 25% ethanol (50 μl), the linimene solutions of anemonin (0.05, 0.5, 5 mg/ml, 50 μl) and FAA (a positive control) were applied on the same ears of mice respectively. The left ear was considered as control. Two hours after dimethylbenene application, mice were killed and both ears were removed. Circular sections were taken, using a 9 mm-diameter borer, and weighed. The increase in weight caused by the irritant was measured by subtracting the weight of the untreated left ear section from that of the treated right ear section.

[4] = tested on: murine spleens cells stimulated with ConA; assay: T-cell proliferation, spleen cells stimulated with ConA ([3H]-thymidine uptake); assay type: cell-based, ICR mice; settings: for [^3H]-TDRincorparation(CPM × 10^−3): ConA 5 μg/ml, 48 hrs
Procedure: (§1) Fresh spleen cells were obtained from ICR mice (male, 7-9 weeks old), 5×10^5 of spleen cells were cultured in 96-well flat plates with […] of RPMI 1640 media containing 10% FBS, 100 U/ml penicillin and 100 μg/ml streptomyin in a humidified, 37° C., 5% CO2 incubator for 48 hrs. The cultures were either unstimulated, or were stimulated with 5 μg/ml of ConA or 10 μg/ml of LPS to induce T cells or B cells proliferative responses respectively. The compounds were added in cultures with indicated concentrations to test their bioactivities. Profileration was assessed in terms of uptake of [^3H]-thymidine during 6-12 hours pulsing with 20 kBq [^3H]-thymidine/well, then the cells were harvested by a Basic 96 harvester, and counted in a 1540 MicroBeta Trilux (PerkinElmer Life Sciences).

[5] = tested on: murine spleens cells stimulated with LPS; assay: B-cell proliferation, spleen cells stimulated with LPS ([3H]-thymidine uptake); assay type: cell-based, ICR mice; settings: for [^3H]-TDRincorparation(CPM × 10^−3): LPS 10 μg/ml, 48 hrs
Procedure: as §1

Compound: O=C1C=CC2(CCC23C=CC(=O)O3)O1 (stereo not shown) [Anemonin, anemonin]
- MTT Average of OD values ([1]; 0.001 μg/ml, Table B-2): 0.087
- Decrease of survival rate of lymphocytes Yes/No ([1]; 0.001 μg/ml, Table B-2): Yes
- MTT Average of OD values ([1]; 0.01 μg/ml, Table B-2): 0.068
- Decrease of survival rate of lymphocytes Yes/No ([1]; 0.01 μg/ml, Table B-2): Yes
- MTT Average of OD values ([1]; 0.1 μg/ml, Table B-2): 0.061
- Decrease of survival rate of lymphocytes Yes/No ([1]; 0.1 μg/ml, Table B-2): Yes
- MTT Average of OD values ([1]; 1 μg/ml, Table B-1): 0.052
- MTT Average of OD values ([1]; 1 μg/ml, Table B-2): 0.002
- Decrease of survival rate of lymphocytes Yes/No ([1]; 1 μg/ml, Table B-1): Yes
- Decrease of survival rate of lymphocytes Yes/No ([1]; 1 μg/ml, Table B-2): Yes
- MTT Average of OD values ([1]; 10 μg/ml, Table B-1): 0.002
- MTT Average of OD values ([1]; 10 μg/ml, Table B-2): 0.008
- Decrease of survival rate of lymphocytes Yes/No ([1]; 10 μg/ml, Table B-1): Yes
- Decrease of survival rate of lymphocytes Yes/No ([1]; 10 μg/ml, Table B-2): Yes
- MTT Average of OD values ([1]; 100 μg/ml, Table B-1): 0.163
- MTT Average of OD values ([1]; 100 μg/ml, Table B-2): 0.145
- inhibition in survival rate of the lymphocytes ([1]; final concentration range from 0.001 μg/ml to 10 μg/ml): obvious inhibition; also recorded: obvious effect
- Proliferation of T-lymphocytes ConA stimulation Average of CPM values ([2]; 0.001 μg/ml, Table B-4): 15466 CPM
- Proliferation of T-lymphocytes ConA stimulation Average of CPM values ([2]; 0.01 μg/ml, Table B-4): 19386 CPM
- Proliferation of T-lymphocytes ConA stimulation Average of CPM values ([2]; 0.1 μg/ml, Table B-4): 15284 CPM
- Proliferation of T-lymphocytes ConA stimulation Average of CPM values ([2]; 1 μg/ml, Table B-3): 8650 CPM
- Proliferation of T-lymphocytes ConA stimulation Average of CPM values ([2]; 1 μg/ml, Table B-4): 8438 CPM
- Proliferation of T-lymphocytes ConA stimulation Average of CPM values ([2]; 10 μg/ml, Table B-3): 171 CPM
- Proliferation of T-lymphocytes ConA stimulation Average of CPM values ([2]; 10 μg/ml, Table B-4): 46 CPM
- Proliferation of T-lymphocytes ConA stimulation Average of CPM values ([2]; 100 μg/ml, Table B-3): 160 CPM
- Proliferation of T-lymphocytes ConA stimulation Average of CPM values ([2]; 100 μg/ml, Table B-4): 155 CPM
- inhibition at 0.001 µg/mL ([2]; Mus musculus, T-lymphocyte, 0.001 μg/ml, ConA stimulation, Table B-4, read-out: General assess of activity Enhancement/Inhibition): 11%
- inhibition at 0.01 µg/mL ([2]; Mus musculus, T-lymphocyte, 0.01 μg/ml, ConA stimulation, Table B-4, read-out: General assess of activity Enhancement/Inhibition): -11%
- inhibition at 0.1 µg/mL ([2]; Mus musculus, T-lymphocyte, 0.1 μg/ml, ConA stimulation, Table B-4, read-out: General assess of activity Enhancement/Inhibition): 13%
- inhibition at 1 µg/mL ([2]; Mus musculus, T-lymphocyte, 1 μg/ml, ConA stimulation, Table B-3, read-out: General assess of activity Enhancement/Inhibition): 47%
- inhibition at 1 µg/mL ([2]; Mus musculus, T-lymphocyte, 1 μg/ml, ConA stimulation, Table B-4, read-out: General assess of activity Enhancement/Inhibition): 52%
- inhibition at 10 µg/mL ([2]; Mus musculus, T-lymphocyte, 10 μg/ml, ConA stimulation, Table B-3, read-out: General assess of activity Enhancement/Inhibition): 99%
- inhibition at 10 µg/mL ([2]; Mus musculus, T-lymphocyte, 10 μg/ml, ConA stimulation, Table B-4, read-out: General assess of activity Enhancement/Inhibition): 100%
- inhibition at 100 µg/mL ([2]; Mus musculus, T-lymphocyte, 100 μg/ml, ConA stimulation, Table B-3, read-out: General assess of activity Enhancement/Inhibition): 99%
- inhibition at 100 µg/mL ([2]; Mus musculus, T-lymphocyte, 100 μg/ml, ConA stimulation, Table B-4, read-out: General assess of activity Enhancement/Inhibition): 99%
- inhibition of ConA-induced responsive proliferation of lymphocytes ([2]; final concentration range from 0.1 μg/ml to 100 μg/ml): remarkably inhibited; also recorded: sharply inhibited
- Ear swellin ([3]; 0.05 mg/ml liniment): 18 ± 7 mg
- Ear swellin ([3]; 0.5 mg/ml liniment): 16 ± 4 mg
- Ear swellin ([3]; 5 mg/ml liniment): 12 ± 4 mg
- ear edema formation ([3]; 0.05-5 mg/ml applied): inhibited in a dose-dependent manner
- inhibitory effect on ear edema ([3]; doses of 2.5-25 μg/ear): statistically significant
- [^3H]-TDRincorparation(CPM × 10^−3) ([4]; 0.001 μg/ml): 30.1 ± 1.31 CPM × 10^−3
- [^3H]-TDRincorparation(CPM × 10^−3) ([4]; 0.01 μg/ml): 33.2 ± 2.56 CPM × 10^−3
- [^3H]-TDRincorparation(CPM × 10^−3) ([4]; 0.1 μg/ml): 30.9 ± 0.78 CPM × 10^−3
- [^3H]-TDRincorparation(CPM × 10^−3) ([4]; 1 μg/ml): 21.7 ± 0.53 CPM × 10^−3
- [^3H]-TDRincorparation(CPM × 10^−3) ([4]; 10 μg/ml): 0.03 ± 0.01 CPM × 10^−3
- [^3H]-TDRincorparation(CPM × 10^−3) ([4]; 100 μg/ml): 0.02 ± 0.01 CPM × 10^−3
- T-cell proliferation ([4]; 1-100 μg/ml): significantly inhibited
- [^3H]-TDRincorparation(CPM × 10^−3) ([5]; 0.001 μg/ml): 52.0 ± 2.27 CPM × 10^−3
- [^3H]-TDRincorparation(CPM × 10^−3) ([5]; 0.01 μg/ml): 47.2 ± 3.41 CPM × 10^−3
- [^3H]-TDRincorparation(CPM × 10^−3) ([5]; 0.1 μg/ml): 47.5 ± 3.60 CPM × 10^−3
- [^3H]-TDRincorparation(CPM × 10^−3) ([5]; 1 μg/ml): 34.4 ± 2.41 CPM × 10^−3
- [^3H]-TDRincorparation(CPM × 10^−3) ([5]; 10 μg/ml): 0.11 ± 0.15 CPM × 10^−3
- [^3H]-TDRincorparation(CPM × 10^−3) ([5]; 100 μg/ml): 0.17 ± 0.26 CPM × 10^−3
- B-cell proliferation ([5]; 1-100 μg/ml): significantly inhibited
